target: T1, acetylcholine muscarinic M1 receptor (Homo sapiens, UniProt P11229); test: muscarinic FLIPR assay: intracellular calcium in CHOnfat/hM1 cells with EC20 acetylcholine; format: cell-based; details: FLIPR Ca2+, 4 min preincubation then EC20 acetylcholine (3 nM final)
T1 construct: expressed in transfected cells; host or cells: CHOnfat cells (CHO; Geneticin selection)
T1 sequence (P11229 1-460): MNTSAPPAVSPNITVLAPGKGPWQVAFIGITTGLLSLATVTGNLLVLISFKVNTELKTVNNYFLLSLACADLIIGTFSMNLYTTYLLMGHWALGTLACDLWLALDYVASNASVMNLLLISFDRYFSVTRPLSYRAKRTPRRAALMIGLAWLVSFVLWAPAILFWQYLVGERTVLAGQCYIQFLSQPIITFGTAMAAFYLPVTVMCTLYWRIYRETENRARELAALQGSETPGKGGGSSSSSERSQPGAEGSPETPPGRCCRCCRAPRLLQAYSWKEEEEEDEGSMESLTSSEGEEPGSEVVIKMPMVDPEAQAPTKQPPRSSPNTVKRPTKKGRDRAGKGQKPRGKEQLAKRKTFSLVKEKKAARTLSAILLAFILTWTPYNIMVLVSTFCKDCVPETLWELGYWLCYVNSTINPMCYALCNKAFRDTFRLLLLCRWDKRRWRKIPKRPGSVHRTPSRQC
Procedure: The assay studies the effect of one or several concentrations of test compounds on basal or acetylcholine-stimulated Ca^2+ levels using FLIPR.
Compounds are prepared and subjected to a preincubation period of 4 min. Thereafter, a single EC20 concentration of acetylcholine is added to each well (3 nM final). The intracellular Ca^2+ level of each sample is measured and compared to an acetylcholine control to determine any modulatory activity.
Cells: CHOnfat/hM1, hM2, hM3 or hM4 cells are plated 24 hr before the assay at a density of 18,000 cells/well (100 μL) in a 384 well plate. CHOnfat/hM1 and CHOnfat/hM3 Growth Medium: 90% DMEM (Hi Glucose); 10% HI FBS; 2 mM L-glutamine; 0.1 mM NEAA; Pen-Strep; and 1 mg/ml Geneticin, are added. For M2Gqi5CHOnfat and M4Gqi5CHOnfat cells, an additional 600 ug/ml hygromycin is added.
Equipment: 384 well plate, 120 μL addition plate; 96-well Whatman 2 ml Uniplate Incubator, 37° C., 5% CO2; Skatron EMBLA-384 Plate Washer; Multimek Pipetting System; Genesis Freedom 200 System; Mosquito System; Temo Nanolitre Pipetting System; and FLIPR^384 Fluorometric Imaging Plate Reader System are used.
Buffers. Assay Buffer: Hanks Balanced Salt Solution, with 20 mM Hepes, 2.5 mM Probenecid (Sigma P-8761) first dissolved in 1N NaOH, 1% Bovine Serum Albumin (Sigma A-9647). Dye Loading Buffer: Assay Buffer plus 1% Fetal Bovine Serum and Fluo-4AM/Pluronic Acid Mixture. 2 mM Fluo-4AM ester stock in DMSO (Molecular Probes F-14202) Concentration of 2 uM in buffer for a final concentration of 1 μM in Assay. 20% Pluronic Acid Solution stock, with concentration of 0.04% in Buffer, 0.02% in Assay.
65 μL of 2 mM Fluo-4AM are mixed with 130 μL of 20% Pluronic Acid. The resulting solution and 650 μL FBS is added to the assay buffer for a total volume of 65 mL. Positive Controls: 4-Br-A23187: 10 mM in DMSO; final concentration 10 μM. Acetylcholine: 10 mM in water, working stock at both 20 uM and 30 uM in assay buffer, final concentration of 10 μM. This is used to check the maximum stimulation of the CHOK1/hM1 cells. 20 uM (2×) acetylcholine is added in the preincubation part of the assay, and the 30 uM (3×) stock is added in the second part. (EC20) Acetylcholine: 10 mM in water, working stock of 9 nM (3×), and final concentration in assay is 3 nM. This is used after the preincubation with test compounds. Addition of the EC20 Acetylcholine to each well with a test compound will ascertain any modulator activity. 24 wells contain 3 nM Acetylcholine alone as a control.
Determining Activity of Putative Compounds: Screening Plate: Compounds are titrated in 96-well plates (columns 2-11), 100% DMSO, started at a concentration of 15 mM (150× stock concentration), and 3-fold serial dilutions using Genesis Freedom200 System. Four 96-well plates are combined into a 384-well plate using Mosquito Nanolitre Pipetting System by transferring 1 ul of serial diluted compounds to each well, and 1 mM acetylcholine (100× stock concentration) were added as a control. Using Temo, 49 μl assay buffer is added to each well of the 384-well plate right before assay.
In a 96-well Whatman 2 ml Uniplate, 9 nM Acetylcholine (3×) is pipetted into wells corresponding to the screening compounds, and into control wells. The 30 uM acetylcholine control (3×) is added into control wells, and the 3× agonist plate is transferred into a 384 well plate. Cells are washed three times with 100 μL of buffer, leaving […] of buffer in each well. Using Multimek, 30 μL of Dye Loading Buffer is added into each well and incubated at 37° C., 5% CO2 for up to one hr.
After 60 min, the cells are washed three times with 100 μL of buffer, leaving 30 μL of buffer in each well. The cell plate, screening plate, and agonist addition plates are placed on the platform in the FLIPR and the door closed. A signal test to check background fluorescence and basal fluorescence signal is performed. Laser intensity is adjusted if necessary. […]

Row | EC50 [nM] | Structure (SMILES)
1 | 975 | O=C(O)c1cn(Cc2ccc(C(F)(F)F)cc2)c2c(F)cccc2c1=O [Example 52, 8-fluoro-4-oxo-1-[4-(trifluoromethyl)benzyl]-1,4-dihydroquinoline-3-carboxylic acid]
2 | 793 | COc1ccc(Cn2cc(C(=O)O)c(=O)c3cccc(F)c32)cc1C(F)(F)F [Example 44, 8-fluoro-1-[4-methoxy-3-(trifluoromethyl)benzyl]-4-oxo-1,4-dihydroquinoline-3-carboxylic acid]
3 | 389 | O=C(O)c1cn(Cc2ccc(O)cc2)c2ccccc2c1=O [Example 71, 1-(4-hydroxybenzyl)-4-oxo-1,4-dihydroquinoline-3-carboxylic acid]

The remaining lines, values behind:

Row | Structure (SMILES) | EC50 [nM]
4 | COc1ccc(Cn2cc(C(=O)O)c(=O)c3cccc(F)c32)cc1 [Example 5, 8-fluoro-1-(4-methoxybenzyl)-4-oxo-1,4-dihydroquinoline-3-carboxylic acid] | 1150
5 | O=C(O)c1cn(Cc2c(F)cccc2F)c2c(F)ccc(F)c2c1=O [Example 4, 1-(2,6-difluorobenzyl)-5,8-difluoro-4-oxo-1,4-dihydroquinoline-3-carboxylic acid] | 614
6 | COc1cccc(Cn2cc(C(=O)O)c(=O)c3c(F)ccc(F)c32)c1 [Example 2, 5,8-difluoro-1-(3-methoxybenzyl)-4-oxo-1,4-dihydroquinoline-3-carboxylic acid] | 4200

— patent US8389545B2, “Quinolone M1 receptor positive allosteric modulators” (Merck, Sharp & Dohme, Corp., priority 2005, dated 2013)
